{
  "source": "paper PMC11054303",
  "about": "“Design and Synthesis of Novel N-Benzylidene Derivatives of 3-Amino-4-imino-3,5-dihydro-4H-chromeno[2,3-d]pyrimidine under Microwave, In Silico ADME Predictions, In Vitro Antitumoral Activities and In Vivo Toxicity” (Pharmaceuticals, 2024)",
  "key": {"[1]": {"test_system": "Huh7 D12", "assay": "Antiproliferative assay, Huh7 D12", "format": "cell-based, human", "description": "(§1) The potential antiproliferative activity of these novel 3-(N-phenylmethyliden)amino-4-imino-3,5-dihydro-4H-chromeno[2,3-d]pyrimidine 10(a-i) and 10-(N-phenylmethyliden)amino-11-imino-11H-naphto[1′,2′:5,6]pyrano[2,3-d]pyrimidine 10(j-l) was evaluated in a panel of eight tumoral cell lines and in diploid skin fibroblasts used as normal cell lines for control. For these antitumor assays, chosen cell lines represent diverse types of human cancer, which are, respectively, human hepatocellular carcinoma (Huh7 D12), human colon adenocarcinoma (Caco2), human breast adenocarcinoma (MDA-MB231), MDA-MB468 for human breast carcinoma which correspond to the Triple Negative Breast Cancer (TNBC), human colon carcinoma (HCT116), PC3 as cell line initiated from bone metastasis of grade IV prostatic adenocarcinoma from a person, MCF7 as breast cancer line isolated from a person and PANC1, as human pancreatic cancer cell line. The potential antiproliferative activity was preliminarily evaluated in vitro at a 25 μM single dose.\n(§2) The IC50 was calculated from the full dose-response curve and used as a parameter for the antiproliferative activity of the new compounds.\n(§3) Skin diploid fibroblastic cells were provided by BIOPREDIC International Company (Rennes, France). Huh-7D12 (Ref ECACC: 01042712), Caco2 (Ref ECACC: 86010202), MDA-MB-231 (Ref ECACC: 92020424), MDA-MB-468, HCT-116 (Ref ECACC: 91091005), PC3 (Ref ECACC: 90112714), and MCF7 cell lines were obtained from the ECACC collection. PANC1 cell lines, a generous gift of LBAI Inserm 1227 (Brest, France). Cells were grown according to ECACC recommendations in DMEM for Huh-D12, MDA-MB-231, MDA-MB-468 and fibroblast, in EMEM for Caco2, in McCoy’s for HCT-116 and RPMI for PC3 at 37 °C and 5% CO2. All culture media with 10% of FBS, 1% of penicillin-streptomycin and 2 mM glutamine.\n(§4) Chemicals were solubilized in DMSO at a concentration of 10 mM (stock solution) and diluted in a culture medium to the desired final concentrations. […] The toxicity test of the chemicals on these cells was as follows: 2 × 10^3 cells for HCT-116 cells or 4 × 10^3 for the other cells were seeded in 96-multi-well plates in triplicate and left for 24 h for attachment, spreading and growing. Then, cells were exposed for 48 h to increasing concentrations of chemicals, ranging from 0.1 μM to 25 μM, in a final volume of 120 μL of culture medium. After 48 h of treatment, cells were washed in PBS and fixed in a cooled 90% ethanol/5% acetic acid solution for 20 min. The nuclei were stained with Hoechst 3342 (B2261 Merck Sigma-Aldrich) and counted. Image acquisition and analysis were performed using automated imaging analysis with a Cellomics Arrayscan VTI/HCS Reader (Thermo/Scientific, Waltham, MA, USA). The survival percentages were calculated as the percentage of cell number after chemical treatment over cell number after DMSO treatment. The IC50 was graphically determined."}, "[2]": {"test_system": "MDA MB231", "assay": "Antiproliferative assay, MDA MB231", "format": "cell-based, human", "description": "as §1, §2, §3, §4"}, "[3]": {"test_system": "Fibroblasts", "assay": "Antiproliferative assay, diploid skin fibroblasts (normal cells)", "format": "cell-based", "details": "Fibroblast; 48 h incubation; average of three assays, standard error ± 0.5 μM", "description": "as §1, §2, §3, §4"}},
  "data": [
    {"molecule": "COc1cccc2c1Oc1ncn(/N=C/c3ccccc3O)c(=N)c1C2", "note": "[10h, (3E) 3-N-(2-Hydroxyphenylmethylidene)amino-4-imino-9-methoxy-3,5-dihydro-4H-chromeno[2,3-d]pyrimidine]", "values": [
      {"measurement": "IC50", "setting": "[1]; Homo sapiens, Huh-7D12, 48 h incubation, average of three assays, standard error ± 0.5 μM", "result": 230, "unit": "nM"},
      {"measurement": "Selectivity Index (SI) Huh7 D12", "setting": "[1]; SI = IC50 fibroblasts/IC50 on Huh7 D12", "result": "> 108.7"},
      {"measurement": "IC50", "setting": "[2]; Homo sapiens, MDA-MB-231, 48 h incubation, average of three assays, standard error ± 0.5 μM", "result": 300, "unit": "nM"},
      {"measurement": "Selectivity Index (SI) MDA MB231", "setting": "[2]; SI = IC50 fibroblasts/IC50 on MDA MB231", "result": "> 83.3"},
      {"measurement": "IC50", "setting": "[3]", "result": "> 25", "unit": "µM"}
    ]}
  ]
}
